Literature values, collected in patent US9814623B2, “Antimicrobial gas impregnating devices and methods” (ENOX (ISRAEL) LTD., priority 2007, dated 2017).

Columns and labels:
[1] = tested on: cultured human dermal fibroblasts; details: exogenous gNO at 200 ppm for extended periods of time
Staphylococcus aureus = details: exogenous gNO at 200 ppm for extended periods of time
[2] = tested on: nosocomial pneumonia caused by microbial pathogens such as S. aureus and P. aeruginosa; details: exogenous gNO at 200 ppm
Escherichia coli = details: exogenous gNO at 200 ppm for extended periods of time
Group B Streptococcus = details: exogenous gNO at 200 ppm for extended periods of time
Pseudomonas aeruginosa = details: exogenous gNO at 200 ppm for extended periods of time
Candida albicans = details: exogenous gNO at 200 ppm for extended periods of time
[3] = tested on: infections after tympanostomy tube placement; details: otic drops after tympanostomy tube placement

Compound	cytotoxic effects on cultured human dermal fibroblasts [1]	growth of Staphylococcus aureus (Staphylococcus aureus)	time to clear nosocomial pneumonia pathogens [2]	growth of Escherichia coli (Escherichia coli)	growth of Group B Streptococcus (Group B Streptococcus)	growth of Pseudomonas aeruginosa (Pseudomonas aeruginosa)	growth of Candida albicans (Candida albicans)	incidence of infection [3]
[N]=O [gNO, nitric oxide]	without any cytotoxic effects	inhibited and prevented the growth	about 6 hours	inhibited and prevented the growth	inhibited and prevented the growth	inhibited and prevented the growth	inhibited and prevented the growth	
Gentamicin								significantly reduced
